From patent publication US20130071482A1, “BLOCK COPOLYMER CROSS-LINKED NANOASSEMBLIES AS MODULAR DELIVERY VEHICLES” (THE UNIVERSITY OF KENTUCKY RESEARCH FOUNDATION, priority 2011, published 2013)

Legend:
[1] = Drug release experiment (dialysis of DOX-loaded particles, sink condition); assay type: physicochemical; conditions: 37° C., from AUC of release-time curve, normalized to initial drug loading (100%)
Procedure: Proton nuclear magnetic resonance (^1H-NMR, Varian, 400 MHz) measurements were used to determine the compositions of block copolymers and nanoassemblies in DMSO-d6 and D2O, respectively. The number average molecular weights (Mn) of block copolymers and nanoassemblies were calculated by gel permeation chromatography (GPC, Shimadzu LC20, Japan) equipped with RI and UV detectors, using PEG standard and a phosphate buffered saline (PBS, 1×) mobile phase. Particle sizes of nanoassemblies were determined by dynamic light scattering (DLS, Zetasizer Nano 90, Malvern, UK) measurements at a 173° fixed angle. All samples were prepared in aqueous solutions at 2 mg/mL and filtered through 0.22 μm filters prior to GPC and DLS analyses. DOX loading and release were quantified using ultraviolet-visible spectrophotometry spectroscopy (UV-Vis, absorbance at 480 nm, SpectraMax M5, Molecular Devices, USA).
All particles entrapping DOX were dissolved in deionized water (0.5 mg/mL), and transferred to six dialysis cassettes (MWCO 10 kDa). […] Drug release patterns were monitored under the sink condition as the volume of dialysis medium was maintained 3,000 times greater (5 L) than the volume of the sample solution in the dialysis cassettes (1.65 mL/cassette, n=3). […] DOX remaining in each dialysis cassette was measured at 0, 1, 3, 6, 10, 24, 34, and 48 h. […]

[2] = tested on: human non-small cell lung cancer A549 cell line; assay: Cytotoxicity assay (resazurin cell viability); assay type: cell-based; conditions: A549 cells
Procedure: A human non-small cell lung cancer A549 cell line was used to determine the cytotoxicity of empty nanoassemblies, DOX-loaded nanoassemblies, and free DOX. Cells were seeded in a 96-well plate (5,000 cells/well) in 100 μL F12K cell culture medium containing 10% FBS. After 24 hours, serial dilutions of the samples were added to the cell plate. Cells were then incubated at 37° C., 5% CO2, for 72 hours, followed by cell viability measurement using a resazurin assay that indicates mitochondrial metabolic activity in live cells. Resazurin solution in PBS (10 μL, 1 mM) was added to the sample-treated cells at the end of the 72-hour treatment period. Three hours later, the fluorescence of resorufin, metabolited resazurin, was measured at 560 nm (excitation)/590 nm (emission). The half maximal inhibitory concentration (IC50) was calculated with Prism software (GraphPad, USA).

Accumulated drug release at pH 5.0 in 48 h ([1]; pH 5.0, 48 h): 100% | Accumulated drug release at pH 7.4 in 48 h ([1]; pH 7.4, 48 h): 100%
Compound: COc1cccc2c1C(=O)c1c(O)c3c(c(O)c1C2=O)C[C@@](O)(C(=O)CO)C[C@@H]3O[C@H]1C[C@H](N)[C@H](O)[C@H](C)O1.Cl [Free DOX, doxorubicin hydrochloride]
IC50 ([2]; 72 hours incubation, resazurin assay, DOX equivalent): 530 ± 200 nM | Relative cytotoxicity ([2]; IC50 relative to free DOX (fold)): 1.00
